The source of these data is patent US20250361230A1, “LATS Inhibitors and Uses Thereof” (The USA, as Represented by the Secretary, Dept. of Heath …, priority 2022, published 2025).

What all share (type): biochemical
In experiment [1] the target is T1, LATS1 (Homo sapiens, UniProt O95835).
T1 sequence (O95835 1-1130): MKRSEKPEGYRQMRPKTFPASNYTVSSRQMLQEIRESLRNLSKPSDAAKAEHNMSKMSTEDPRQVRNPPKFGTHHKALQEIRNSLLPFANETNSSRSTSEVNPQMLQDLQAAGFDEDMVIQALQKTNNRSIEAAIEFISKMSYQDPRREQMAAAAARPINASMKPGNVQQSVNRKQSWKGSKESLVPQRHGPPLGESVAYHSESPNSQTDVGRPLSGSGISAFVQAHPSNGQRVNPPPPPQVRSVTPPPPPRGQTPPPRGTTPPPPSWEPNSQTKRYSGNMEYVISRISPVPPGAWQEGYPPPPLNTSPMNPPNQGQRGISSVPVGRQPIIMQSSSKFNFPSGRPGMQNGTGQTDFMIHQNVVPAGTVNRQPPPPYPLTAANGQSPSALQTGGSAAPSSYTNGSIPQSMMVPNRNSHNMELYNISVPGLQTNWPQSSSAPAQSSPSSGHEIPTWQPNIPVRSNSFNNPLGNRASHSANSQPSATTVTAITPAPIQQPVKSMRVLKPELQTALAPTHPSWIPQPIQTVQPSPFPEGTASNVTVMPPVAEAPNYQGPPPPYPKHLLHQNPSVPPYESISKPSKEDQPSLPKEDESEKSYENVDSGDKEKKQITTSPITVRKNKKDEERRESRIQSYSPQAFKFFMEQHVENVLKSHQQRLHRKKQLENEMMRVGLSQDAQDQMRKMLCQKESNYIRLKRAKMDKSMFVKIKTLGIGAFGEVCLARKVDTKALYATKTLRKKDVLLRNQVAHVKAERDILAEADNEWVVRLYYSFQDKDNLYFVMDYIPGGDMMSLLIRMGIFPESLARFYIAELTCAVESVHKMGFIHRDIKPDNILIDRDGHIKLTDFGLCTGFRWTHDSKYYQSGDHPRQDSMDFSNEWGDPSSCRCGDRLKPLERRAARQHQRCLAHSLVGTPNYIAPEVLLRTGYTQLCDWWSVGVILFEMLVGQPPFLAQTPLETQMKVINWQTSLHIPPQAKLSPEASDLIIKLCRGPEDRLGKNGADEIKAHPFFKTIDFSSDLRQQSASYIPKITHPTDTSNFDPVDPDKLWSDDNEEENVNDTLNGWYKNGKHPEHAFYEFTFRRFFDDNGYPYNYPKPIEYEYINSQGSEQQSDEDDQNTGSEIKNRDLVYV
Description: RBC HotSpot kinase assay (33P-ATP, P81 filter-binding), LATS1. To be noted: Table 28, biochemical kinase assay; read-out: LATS1 IC50. The method in brief: (§1)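 Compounds were run as single 10-point titrations to give IC50 values in nM. Each kinase was mixed with substrate and cofactors in 20 mM Hepes pH 7.5 reaction buffer with 1% DMSO, then exposed to compound for 20 min. 33P-ATP was added for a 2 h room-temperature reaction, with activity measured by P81 filter binding.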

Experiment [2] has as its target T2, LATS2 (Homo sapiens, UniProt Q9NRM7).
T2 sequence (Q9NRM7 1-1088): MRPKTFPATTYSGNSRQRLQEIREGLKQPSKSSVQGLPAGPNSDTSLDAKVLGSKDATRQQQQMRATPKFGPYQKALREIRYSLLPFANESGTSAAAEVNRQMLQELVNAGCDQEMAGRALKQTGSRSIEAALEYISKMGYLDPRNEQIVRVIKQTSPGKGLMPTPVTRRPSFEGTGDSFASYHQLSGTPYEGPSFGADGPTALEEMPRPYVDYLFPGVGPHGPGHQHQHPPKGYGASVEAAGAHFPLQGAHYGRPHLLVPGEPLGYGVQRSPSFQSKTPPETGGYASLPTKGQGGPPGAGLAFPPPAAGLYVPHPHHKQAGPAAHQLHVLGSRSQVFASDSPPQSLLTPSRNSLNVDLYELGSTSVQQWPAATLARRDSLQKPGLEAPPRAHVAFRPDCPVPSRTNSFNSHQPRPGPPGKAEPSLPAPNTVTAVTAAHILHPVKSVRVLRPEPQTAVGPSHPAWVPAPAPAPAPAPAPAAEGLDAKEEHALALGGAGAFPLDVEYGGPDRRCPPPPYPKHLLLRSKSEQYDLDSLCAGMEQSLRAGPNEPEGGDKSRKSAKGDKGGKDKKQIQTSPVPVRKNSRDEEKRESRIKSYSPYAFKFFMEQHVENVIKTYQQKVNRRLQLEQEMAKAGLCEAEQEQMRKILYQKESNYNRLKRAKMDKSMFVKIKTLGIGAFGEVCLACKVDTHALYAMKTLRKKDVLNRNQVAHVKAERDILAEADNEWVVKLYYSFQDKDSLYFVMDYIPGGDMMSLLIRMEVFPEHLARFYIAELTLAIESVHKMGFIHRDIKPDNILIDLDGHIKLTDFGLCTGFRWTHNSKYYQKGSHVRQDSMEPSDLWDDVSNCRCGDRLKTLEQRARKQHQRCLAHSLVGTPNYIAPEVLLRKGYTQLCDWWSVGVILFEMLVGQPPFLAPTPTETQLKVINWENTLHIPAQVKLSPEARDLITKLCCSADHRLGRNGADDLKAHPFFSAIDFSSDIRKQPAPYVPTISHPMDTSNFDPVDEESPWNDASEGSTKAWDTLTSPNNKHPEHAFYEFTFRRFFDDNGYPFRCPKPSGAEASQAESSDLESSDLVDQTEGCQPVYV
Nature of the experiment: RBC HotSpot kinase assay (33P-ATP, P81 filter-binding), LATS2. The following applies: Table 28, biochemical kinase assay; read-out: LATS2 IC50. The gist of the method: as §1

In experiment [3] the target is AKT (Homo sapiens, UniProt P31749). Nature of the experiment: RBC HotSpot kinase assay (33P-ATP, P81 filter-binding), AKT. To be noted: Table 28, biochemical kinase assay; read-out: AKT IC50. The gist of the method:
as §1

Sequence of AKT (P31749 whole entry): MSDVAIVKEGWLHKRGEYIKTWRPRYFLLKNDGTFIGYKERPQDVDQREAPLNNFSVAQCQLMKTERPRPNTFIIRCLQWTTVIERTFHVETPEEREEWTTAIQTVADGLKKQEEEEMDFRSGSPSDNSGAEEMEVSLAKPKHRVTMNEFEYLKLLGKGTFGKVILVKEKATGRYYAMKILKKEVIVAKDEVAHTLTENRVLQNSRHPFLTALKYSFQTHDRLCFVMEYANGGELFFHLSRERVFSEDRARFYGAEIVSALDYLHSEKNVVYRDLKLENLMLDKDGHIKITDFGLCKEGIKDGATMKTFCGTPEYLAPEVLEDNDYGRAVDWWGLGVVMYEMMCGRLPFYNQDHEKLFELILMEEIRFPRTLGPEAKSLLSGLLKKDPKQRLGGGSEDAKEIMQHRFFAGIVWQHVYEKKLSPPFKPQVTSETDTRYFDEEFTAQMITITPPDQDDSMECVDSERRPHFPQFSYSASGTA

As usually defined, the IC50 is the point on the concentration scale where inhibition reaches its midpoint. Consider `Fc1ccc(CNCc2ccc(-c3ccnc4[nH]ccc34)cc2Cl)cc1` [Compound 282, N-(2-chloro-4-(1H-pyrrolo[2,3-b]pyridin-4-yl)benzyl)-1-(4-fluorophenyl) methanamine], for which the IC50 in experiment [1] was 31.4 nM; in experiment [2], 59.2 nM; in experiment [3] it was 3800 nM.

Regarding `NCc1ccc(-c2ccnc3[nH]ccc23)cc1Cl` [Compound 283, (2-chloro-4-(1H-pyrrolo[2,3-b]pyridin-4-yl)phenyl) methanamine], the 50% inhibitory concentration (IC50) worked out at 8 nM in experiment [1], 20 nM in experiment [2] and 732 nM in experiment [3].

On to `FC(F)(F)Oc1cccc(CNCc2ccc(-c3ccnc4[nH]ccc34)cc2)c1` [Compound 285, N-(4-(1H-pyrrolo[2,3-b]pyridin-4-yl)benzyl)-1-(3-(trifluoromethoxy)phenyl) methanamine], for which the IC50 was determined as 167 nM in experiment [1], 191 nM in experiment [2] and 1990 nM in experiment [3].

Turning to `NCc1ccc(-c2ccnc3[nH]ccc23)c(C(F)(F)F)c1` [Compound 286, (4-(1H-pyrrolo[2,3-b]pyridin-4-yl)-3-(trifluoromethyl)phenyl) methanamine], the half-maximal inhibitory concentration (IC50) in experiment [1] is 5050 nM; in experiment [2] it was 1260 nM; in experiment [3], 3410 nM.

As for `COC(=O)c1c[nH]c2nccc(-c3ccc([C@@]4(O)[C@H](C)CNC[C@@H]4C)c(C)c3)c12` [Compound 300, methyl 4-(4-((3S,4s,5R)-4-hydroxy-3,5-dimethylpiperidin-4-yl)-3-methylphenyl)-1H-pyrrolo[2,3-b]pyridine-3-carboxylate], the IC50 in experiment [1] amounted to 3.2 nM; in experiment [2], 1.6 nM; in experiment [3], 282 nM.

Take `CCc1cc(-c2ccnc3[nH]cc(F)c23)ccc1[C@@]1(O)[C@H](C)CNC[C@@H]1C` [Compound 302, (3S,4s,5R)-4-(2-ethyl-4-(3-fluoro-1H-pyrrolo[2,3-b]pyridin-4-yl)phenyl)-3,5-dimethylpiperidin-4-ol]: the values for the IC50 in experiment [1], in experiment [2] and in experiment [3] were 8.7 nM, 4.9 nM and 39.5 nM, respectively.

For `Cc1cc(-c2ccnc3[nH]cc(Cl)c23)cc(F)c1[C@@]1(O)[C@H](C)CNC[C@@H]1C` [Compound 303, (3S,4s,5R)-4-(4-(3-chloro-1H-pyrrolo[2,3-b]pyridin-4-yl)-2-fluoro-6-methylphenyl)-3,5-dimethylpiperidin-4-ol], the IC50 in experiment [1] is 4.8 nM; in experiment [2] it was 3.3 nM; in experiment [3], 246 nM.

`CCc1cc(-c2ccnc3[nH]cc(F)c23)ccc1[C@@]1(O)[C@H](C)CN(C2CCS(=O)(=O)CC2)C[C@@H]1C` [Compound 306, 4-((3S,4s,5R)-4-(2-ethyl-4-(3-fluoro-1H-pyrrolo[2,3-b]pyridin-4-yl)phenyl)-4-hydroxy-3,5-dimethylpiperidin-1-yl)tetrahydro-2H-thiopyran 1,1-dioxide]: the half-maximal inhibitory concentration (IC50) in experiment [1] is 11.6 nM; in experiment [2], 5.4 nM; in experiment [3] it was 31.2 nM.

Consider `Cc1cc(-c2ccnc3[nH]cc(Cl)c23)cc(F)c1[C@@]1(O)[C@H](C)CN(C2CCS(=O)(=O)CC2)C[C@@H]1C` [Compound 307, 4-((3S,4s,5R)-4-(4-(3-chloro-1H-pyrrolo[2,3-b]pyridin-4-yl)-2-fluoro-6-methylphenyl)-4-hydroxy-3,5-dimethylpiperidin-1-yl)tetrahydro-2H-thiopyran 1,1-dioxide], for which the results for the IC50 in experiment [1], in experiment [2] and in experiment [3] were 4.2 nM, 3.1 nM and 206 nM, respectively.

Regarding `Cc1cc(-c2ccnc3[nH]ccc23)cc(F)c1[C@@]1(O)[C@H](C)CN(C2CCS(=O)(=O)CC2)C[C@@H]1C` [Compound 308, 4-((3S,4s,5R)-4-(2-fluoro-6-methyl-4-(1H-pyrrolo[2,3-b]pyridin-4-yl)phenyl)-4-hydroxy-3,5-dimethylpiperidin-1-yl)tetrahydro-2H-thiopyran 1,1-dioxide], the half-maximal inhibitory concentration (IC50) worked out at 10 nM in experiment [1], 8.4 nM in experiment [2] and 1090 nM in experiment [3].

Consider `COC(=O)c1c[nH]c2nccc(-c3ccc([C@@]4(O)[C@H](C)CN(C(=O)CN)C[C@@H]4C)c(C)c3)c12` [Compound 311, methyl 4-(4-((3S,4s,5R)-1-glycyl-4-hydroxy-3,5-dimethylpiperidin-4-yl)-3-methylphenyl)-1H-pyrrolo[2,3-b]pyridine-3-carboxylate], for which the 50% inhibitory concentration (IC50) in experiment [1] amounted to 6.9 nM; in experiment [2], 3.6 nM; in experiment [3] it was 1040 nM.

With `Cc1cc(-c2ccnc3[nH]cc(C)c23)cc(F)c1[C@@]1(O)[C@H](C)CN(C(=O)CN)C[C@@H]1C` [Compound 314, 2-amino-1-((3S,4s,5R)-4-(2-fluoro-6-methyl-4-(3-methyl-1H-pyrrolo[2,3-b]pyridin-4-yl)phenyl)-4-hydroxy-3,5-dimethylpiperidin-1-yl)ethan-1-one], the IC50 was found to be 1.6 nM in experiment [1], 4.8 nM in experiment [2] and 249 nM in experiment [3].

With `CN[C@@H](C)C(=O)N1C[C@@H](C)[C@](O)(c2c(C)cc(-c3ccnc4[nH]cc(F)c34)cc2F)[C@@H](C)C1` [Compound 315, (S)-1-((3S,4R,5R)-4-(2-fluoro-4-(3-fluoro-1H-pyrrolo[2,3-b]pyridin-4-yl)-6-methylphenyl)-4-hydroxy-3,5-dimethylpiperidin-1-yl)-2-(methylamino) propan-1-one], the IC50 in experiment [1] was 11.6 nM; in experiment [2], 5.7 nM; in experiment [3] it was 1350 nM.

For the compound `CN[C@H](C)C(=O)N1C[C@@H](C)[C@](O)(c2c(C)cc(-c3ccnc4[nH]cc(F)c34)cc2F)[C@@H](C)C1` [Compound 316, (R)-1-((3S,4S,5R)-4-(2-fluoro-4-(3-fluoro-1H-pyrrolo[2,3-b]pyridin-4-yl)-6-methylphenyl)-4-hydroxy-3,5-dimethylpiperidin-1-yl)-2-(methylamino) propan-1-one], the half-maximal inhibitory concentration (IC50) amounted to 12 nM in experiment [1], 6.8 nM in experiment [2] and 1370 nM in experiment [3].

For the compound `Cc1cc(-c2ccnc3[nH]cc(Cl)c23)cc(F)c1[C@@]1(O)[C@H](C)CN(C(=O)CN)C[C@@H]1C` [Compound 317, 2-amino-1-((3S,4s,5R)-4-(4-(3-chloro-1H-pyrrolo[2,3-b]pyridin-4-yl)-2-fluoro-6-methylphenyl)-4-hydroxy-3,5-dimethylpiperidin-1-yl)ethan-1-one], the figures for the IC50 in experiment [1], in experiment [2] and in experiment [3] were 7.6 nM, 3.8 nM and 186 nM, respectively.
